Source: patent US20080132549A1, “Sulphur-Linked Imidazone Compounds for the Treatment of Hiv/Aids” (Pfizer Inc., priority 2004, published 2008)

Legend:
[1] = target: T1, purified recombinant HIV-1 reverse transcriptase (Human immunodeficiency virus type 1 group M subtype B, UniProt P04585); assay: Inhibition of HIV-1 reverse transcriptase enzyme ([3H]-Flashplate enzyme assay, 384-well); assay type: biochemical; conditions: recombinant HIV-1 RT expressed in Escherichia Coli; 5% final DMSO
T1 construct: purified recombinant HIV-1 reverse transcriptase (RT, EC, 2.7.7.49); made in house; host or cells: Escherichia coli
Source text: The activity of the compounds of the invention as reverse transcriptase inhibitors may be measured using the following assay.
Inhibition of HIV-1 Reverse Transcriptase Enzyme
The reverse transcriptase activity of the compounds of the invention may be assayed as follows. Using the purified recombinant HIV-1 reverse transcriptase (RT, EC, 2.7.7.49) obtained by expression in Escherichia Coli, a 384-well plate assay system was established for assaying a large number of samples using the [3H]-Flashplate enzyme assay system (NEN-SMP 410A) following the manufacturer's recommendations. The compounds were dissolved in 100% DMSO and diluted with the appropriate buffer to a 5% final DMSO concentration. The inhibitory activity was expressed in percent inhibition relative to the DMSO control.

| Structure (SMILES) | melting point | IC50 [1] |
| --- | --- | --- |
| CCc1nc(CCO)n(CC)c1Sc1cc(C#N)cc(C#N)c1 [Example 1, 5-[3,5-Diethyl-2-(2-hydroxyethyl)-3H-imidazol-4-ylsulfanyl]-isophthalonitrile] | – | 38 nM |
| CCc1nc(CCOC(N)=O)n(C)c1Sc1cc(C#N)cc(C#N)c1 [Example 4, Carbamic acid 2-[5-(3,5-dicyano-phenylsulfanyl)-4-ethyl-1-methyl-1H-imidazol-2-yl]-ethyl ester] | – | 926 nM |
| CCn1c(CO)nc(C(F)(F)F)c1Sc1cc(C#N)cc(C#N)c1 [Example 9] | 184 to 186 °C | 1160 nM |
| Cn1c(COC(N)=O)nc(C2CC2)c1Sc1cc(C#N)cc(C#N)c1 [Example 14, Carbamic acid 4-cyclopropyl-5-(3,5-dicyano-phenylsulfanyl)-1-methyl-1H-imidazol-2-ylmethyl ester] | – | 353 nM |
| CCc1nc(CCOC)n(CC)c1Sc1cc(C#N)cc(C#N)c1 [Example 23, 5-[3,5-Diethyl-2-(2-methoxy-ethyl)-3H-imidazol-4-ylsulfanyl]-isophthalonitrile] | – | 147 nM |
| Cc1nc(C(F)(F)F)c(Sc2cc(C#N)cc(C#N)c2)n1C [Example 38] | – | 1070 nM |
| Cc1nc(C2CC2)c(Sc2cc(C#N)cc(C#N)c2)n1Cc1ccncc1 [Example 40] | – | 135 nM |

The next lines start with results.

| melting point | Structure (SMILES) | IC50 [1] |
| --- | --- | --- |
| 170 to 172 °C | CCn1c(COC(N)=O)nc(C2CC2)c1Sc1cc(C#N)cc(C#N)c1 | – |
| 174 to 175 °C | CCn1c(COC(N)=O)nc(C(C)C)c1Sc1cc(C#N)cc(C#N)c1 | – |
| 156 to 158 °C | CCn1c(COC)nc(C(C)C)c1Sc1cc(C#N)cc(C#N)c1 | – |
| 133 to 135 °C | CCc1nc(CN)n(CC)c1Sc1cc(C#N)cc(C#N)c1 | – |
| 141 to 143 °C | CCc1nc(CO)n(CC)c1Sc1cc(C#N)cc(C#N)c1 | – |
| 122 to 124 °C | CCn1c(CCO)nc(C2CC2)c1Sc1cc(C#N)cc(C#N)c1 | – |
| 167 to 169 °C | CCn1c(CO)nc(C(C)C)c1Sc1cc(C#N)cc(C#N)c1 | – |
